From patent US8153626B2, “Substituted diazepine sulfonamides as bombesin receptor subtype-3 modulators” (Merck Sharp & Dohme Corp., priority 2006, dated 2012)
Like-named read-outs stand apart in the source and are kept apart here.

Assays:
human BRS3 [1] = target: T1, human BRS3 (Homo sapiens, UniProt P32247); assay: [125I]-dY-peptide radioligand binding assay (filtration, membranes)
T1 construct: expressed in transfected cells
T1 sequence (P32247 1-399): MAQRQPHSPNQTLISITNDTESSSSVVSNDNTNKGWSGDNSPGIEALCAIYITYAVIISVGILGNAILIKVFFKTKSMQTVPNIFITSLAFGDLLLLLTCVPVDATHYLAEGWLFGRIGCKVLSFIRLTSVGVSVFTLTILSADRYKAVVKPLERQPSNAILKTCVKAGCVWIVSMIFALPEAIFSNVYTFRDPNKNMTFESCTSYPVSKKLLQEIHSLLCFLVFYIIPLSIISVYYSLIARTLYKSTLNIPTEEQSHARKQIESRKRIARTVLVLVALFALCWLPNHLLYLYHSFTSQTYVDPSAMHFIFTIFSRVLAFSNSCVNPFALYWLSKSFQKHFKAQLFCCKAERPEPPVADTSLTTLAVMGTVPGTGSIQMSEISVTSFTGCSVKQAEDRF
Experimental: Dissociated cells were collected by centrifuging at 1000 rpm for 10 minutes. Cell pellets were resuspended and homogenized at 4° C. using a Polytron homogenizer (setting 40, 20 stokes) in approximately 10 mL membrane preparation buffer (10 mM Tris pH 7.4, 0.01 mM Pefabloc, 10 μM phosphoramidon and 40 μg/mL Bacitracin) per T175 flask. After centrifugation at 2200 rpm (1000×g) for 10 minutes at 4° C., the supernatant was transferred to a clean centrifuge tube and spun at 18,000 rpm (38,742×g) for 15 minutes. at 4° C.
The filters were washed five times with ice-cold washing buffer (1×PBS without Mg^++ and Ca^++). The radioactivity was determined by adding 30 μl of microscintillant/well after each plate was dried at room temperature overnight or placed at 50° C. for 1 hr.
A Packard Top Count was used to read the filter plates. The data in % inhibition of binding was plotted vs. the log molar concentration of receptor ligand (compound). The IC50 was reported as the inflection point of the resulting sigmoidal curve. […] The binding assays for the rat and mouse Bombesin Receptor Subtype 3 (BRS3) were performed in a similar fashion.

human BRS3 [2] = target: T1, human BRS3; assay: Aequorin bioluminescent assay to measure intracellular Ca++ (HEK293AEQ cells); type: cell-based; details: read-out: human BRS-3 EC50
Experimental: HEK293/AEQ cell lines stably expressing either human, rat or mouse BRS3 cDNA were generated using standard cell biology techniques and were used for all functional assays and to prepare membranes for the rat BRS3 binding assay. […] The transfected cells were used to prepare membranes for the [^3H]-biphenyl binding assay and for the functional assays. The cells were maintained in culture under the same conditions used for the human and rat stable BRS3 HEK293AEQ cell lines. All cells were grown as attached monolayers to approximately 90% confluency in tissue culture flasks under the appropriate media in an incubator at 37° C. with 5% CO2. Cells were passed 1:3 to 1:5 twice a week depending on the rate of growth.
The same media (8 mL) containing 20 μM coelenterzine was added to the cells and incubated at 37° C. for 1 hr. The media was aspirated and the flasks rinsed with 6 mL ECB buffer (140 mM NaCl, 20 mM KCl, 20 mM HEPES, 5 mM glucose, 1 mM MgCl, 1 mM CaCl, 0.1 mg/mL BSA, pH 7.4). The cells were dissociated with a rubber-tipped scraper in 6 mL of fresh ECB buffer and collected by centrifugation at 2500 rpm for 5 minutes. The cell pellets were resuspended in ECB buffer to a concentration of 200,000 cells/mL and were either used right away or quickly frozen in liquid nitrogen for storage at −80° C. for up to six weeks.
The Aequorin assay itself was performed in 96-well format using a Wallac Microbeta luminometer equipped with microinjector module. Compounds in DMSO (0.5% final concentration) were titrated in the plates at 2× concentration in a volume of 0.1 mL ECB buffer. The cells (20,000 per well) were then injected in 0.1 mL ECB buffer and the bioluminescence monitored for 30 seconds. Alternatively, total bioluminescence was determined over 10 minutes. The bioluminescent readings were plotted vs. the log molar concentration of receptor ligand (compound). The EC50 for activation was reported as the inflection point of the resulting sigmoidal curve.

[3] = Bombesin Subtype-3 Receptor Binding, method A, racemic mixture or the more potent enantiomer after HPLC separation, read-out: human BRS-3 IC50
[4] = Bombesin Subtype-3 Receptor agonism, method C, racemic mixture or the more potent enantiomer after HPLC separation

Row | SMILES | IC50 (human BRS3 [1]; [3]) [nM] | EC50 (human BRS3 [2]; [4]) [nM] | IC50 (human BRS3 [1]; read-out: human BRS-3 IC50) [nM] | EC50 (human BRS3 [2]) [nM] | IC50 (human BRS3 [1]) [nM]
1 | O=S(=O)(c1ccc(OC(F)(F)F)cc1)N1Cc2ccc(C(F)(F)F)nc2Nc2cccc(-c3noc(CO)n3)c21 (racemic) [Example 7, {3-[6-{[4-(Trifluoromethoxy)phenyl]sulfonyl}-2-(trifluoromethyl)-6,11-dihydro-5H-pyrido[2,3-b]-[1,5]benzodiazepin-7-yl]-1,2,4-oxadiazol-5-yl}methanol] | 2.9 | 33 |  |  | 
2 | CC(C)(C)c1ccc(S(=O)(=O)N2Cc3ccc(C(F)(F)F)nc3Nc3ccc(C(C)(C)C(=O)O)cc32)cc1 [Example 374, 2-[6-[(4-tert-Butylphenyl)sulfonyl]-2-(trifluoromethyl)-6,11-dihydro-5H-pyrido[2,3-b][1,5]benzodiazepin-8-yl]-2-methylpropanoic acid] | 4.9 | 130 |  |  | 
3 | CC(C)(C)c1ccc(S(=O)(=O)N2Cc3ccc(C(F)(F)F)nc3Nc3cccc(-c4noc(CO)n4)c32)cc1 (racemic) [Example 5, {3-[6-[(4-tert-Butylphenyl)sulfonyl]-2-(trifluoromethyl)-6,11-dihydro-5H-pyrido[2,3-b]-[1,5]benzodiazepin-7-yl]-1,2,4-oxadiazol-5-yl}methanol] | 0.75 | 34 |  |  | 
4 | CC(C)(O)c1nc(C2(c3cccc4c3N(S(=O)(=O)c3ccc(OC(F)(F)F)cc3)Cc3ccc(C(F)(F)F)nc3N4)CCC2)no1 [Example 531, 2-(3-{1-[6-{[4-(Trifluoromethoxy)phenyl]sulfonyl}-2-(trifluoromethyl)-6,11-dihydro-5H-pyrido[2,3-b][1,5]benzodiazepin-7-yl]cyclobutyl}-1,2,4-oxadiazol-5-yl)propan-2-ol] |  |  | 0.65 | 94 | 
5 | CC(C)(C)c1ccc(S(=O)(=O)N2Cc3ccc(C(F)(F)F)nc3Nc3ccncc32)cc1 [Example 464, 6-[(4-tert-Butylphenyl)sulfonyl]-2-(trifluoromethyl)-6,11-dihydro-5H-dipyrido[2,3-e:3′,4′-b][1,4]diazepine] | 38 | 196 |  |  | 
6 | CC(C)(O)c1nc(-c2cccc3c2N(S(=O)(=O)c2ccc(C4(C(F)(F)F)CC4)cc2)Cc2ccc(C(F)(F)F)nc2N3)no1 (racemic) [Example 4, 2-{3-[2-(Trifluoromethyl)-6-({4-[1-(trifluoromethyl)cyclopropyl]phenyl}sulfonyl)-6,11-dihydro-5H-pyrido[2,3-b][1,5]benzodiazepin-7-yl]-1,2,4-oxadiazol-5-yl}-2-propanol] | 3.3 | 139 |  |  | 
7 | CC(C)(C)c1ccc(S(=O)(=O)N2Cc3ccc(C(F)(F)F)nc3Nc3ccc4ncccc4c32)cc1 [Example 316, 13-[(4-tert-Butylphenyl)sulfonyl]-9-(trifluoromethyl)-12,13-dihydro-7H-pyrido[2′,3′:5,6][1,4]diazepino[2,3-ƒ]quinoline] |  | 48 |  |  | 0.64
8 | CC(C)(O)c1nc(-c2cccc3c2N(S(=O)(=O)c2ccc(C(F)(F)F)cc2)Cc2ccc(C(F)(F)F)nc2N3)no1 (racemic) [Example 2, 2-[3-(2-(Trifluoromethyl)-6-{[4-(trifluoromethyl)phenyl]sulfonyl}-6,11-dihydro-5H-pyrido[2,3-b][1,5]benzodiazepin-7-yl)-1,2,4-oxadiazol-5-yl]propan-2-ol] | 8.3 | 158 |  |  | 
9 | Cc1ccc2c(c1C)N(S(=O)(=O)c1ccc(C(C)(C)C)cc1)Cc1ccc(C(F)(F)F)nc1N2 (racemic) [Example 251, 6-[(4-tert-Butylphenyl)sulfonyl]-7,8-dimethyl-2-(trifluoromethyl)-6,11-dihydro-5H-pyrido[2,3-b][1,5]benzodiazepine] |  | 100 |  |  | 1
10 | CC(C)(C)c1ccc(S(=O)(=O)N2Cc3ccc(C(F)(F)F)nc3Nc3cccc(-c4noc(C(C)(C)O)n4)c32)cc1 (racemic) [Example 3, 2-{3-[6-[(4-tert-Butylphenyl)sulfonyl]-2-(trifluoromethyl)-6,11-dihydro-5H-pyrido[2,3-b][1,5]benzodiazepin-7-yl]-1,2,4-oxadiazol-5-yl}propan-2-ol] | 1.9 | 63 |  |  | 
11 | Cc1ccc2c(n1)N(S(=O)(=O)c1ccc(C(C)(C)C)cc1)Cc1ccc(C(F)(F)F)nc1N2 [Example 536] | 5.3 | 66 |  |  | 
12 | CC(C)(O)c1nc(-c2cccc3c2N(S(=O)(=O)c2ccc(OC(F)(F)F)cc2)Cc2ccc(C(F)(F)F)nc2N3)no1 (racemic) [Example 1, 2-{3-[6-{[4-(Trifluoromethoxy)phenyl]sulfonyl}-2-(trifluoromethyl)-6,11-dihydro-5H-pyrido[2,3-b][1,5]benzodiazepin-7-yl]-1,2,4-oxadiazol-5-yl}propan-2-ol] |  | 73 |  |  | 3.6
13 | O=S(=O)(c1ccc(C(F)(F)F)cc1)N1Cc2ccc(C(F)(F)F)nc2Nc2cccc(-c3noc(CO)n3)c21 (racemic) [Example 6, [3-(2-(Trifluoromethyl)-6-{[4-(trifluoromethyl)phenyl]sulfonyl}-6,11-dihydro-5H-pyrido[2,3-b]-[1,5]benzodiazepin-7-yl)-1,2,4-oxadiazol-5-yl]methanol] | 6.4 | 52 |  |  | 
14 | CC(C)(C(N)=O)c1cccc2c1N(S(=O)(=O)c1ccc(OC(F)(F)F)cc1)Cc1ccc(C(F)(F)F)nc1N2 [Example 533, 2-Methyl-2-[6-{[4-(trifluoromethoxy)phenyl]sulfonyl}-2-(trifluoromethyl)-6,11-dihydro-5H-pyrido[2,3-b][1,5]-benzodiazepin-7-yl]propanamide] | 2.2 | 16 |  |  | 
15 | CC(C)(C)c1ccc(S(=O)(=O)N2Cc3ccc(C(F)(F)F)nc3Nc3ccc(-c4noc(CO)n4)cc32)cc1 [Example 437, {3-[6-[(4-tert-Butylphenyl)sulfonyl]-2-(trifluoromethyl)-6,11-dihydro-5H-pyrido[2,3-b][1,5]benzodiazepin-8-yl]-1,2,4-oxadiazol-5-yl}methanol] | 4.1 | 121 |  |  | 
